Values after ≈ are worked out from the molar mass of the structure shown.
Tests used:
Typhlodromus pyri = experiment: LR50; higher = less toxic; conditions: not reported; mortality
Aphidius rhopalosiphi = experiment: LR50; higher = less toxic; conditions: not reported; mortality
Pimephales promelas = conditions: chronic/long-term; duration: 32 days; reproduction
Apis mellifera = conditions: acute, mortality
Neomysis kadiakensis = conditions: mortality
Daphnia magna = conditions: chronic/long-term; duration: 21 days; reproduction
Bibionidae = conditions: chronic/long-term; duration: 28 days; reproduction
Canidae = conditions: chronic; duration: 52 weeks; oral; Dog Other; organ weight
Oncorhynchus mykiss = conditions: acute; duration: 96 hours; mortality

For `CNC(=O)C(OC)c1ccccc1COc1cc(C)ccc1C` (centres undefined) [Mandestrobin], the LR50 (Typhlodromus pyri) was over 1000 g/ha, the LR50 (Aphidius rhopalosiphi) was over 1000 g/ha and the NOEC (Pimephales promelas) was 0.15 mg/L. For the same compound, the LC50 (Tagia sp.; acute, duration: 14 days, mortality) was 84 mg/kg, the NOEC (Tagia sp.; chronic/long-term, duration: 56 days) was 3.75 mg/kg and the LD50 (Apis mellifera; dermal) was over 100 µg/piece. The LD50 (Apis mellifera; oral, unspecified) was over 111 µg/piece, the LD50 (Rattus norvegicus; acute, oral, mortality) was over 200 mg/kg-day and the NOAEL (Rattus norvegicus; reproduction developmental) was 163 mg/kg-day. It also gave an LOAEL (Rattus norvegicus; reproduction developmental, organ weight) of 60.2 mg/kg-day, an LC50 (Neomysis kadiakensis; acute, duration: 96 hours) of 0.43 µg/mL (≈ 1.37 µM) and an NOEC (Neomysis kadiakensis; chronic/long-term, duration: 36 days) of 0.0036 mg/L. The NOEC (Daphnia magna) was 0.56 mg/L, the NOEC (Bibionidae) was 8.1 mg/L and the NOAEL (Canidae) was 19 mg/kg-day. The LC50 (Colinus virginianus; acute, duration: 8 days, oral, diet, mortality) was over 1340 mg/kg-day, the LD50 (Colinus virginianus; acute, oral, mortality) was over 2250 mg/kg-day and the NOEC (Colinus virginianus; reproduction developmental, duration: 21 weeks, reproduction) was 91.1 mg/kg-day. The LC50 (Oncorhynchus mykiss) was 0.84 µg/mL (≈ 2.68 µM).

— EPA's ToxValDB 9.5 (doi:10.2903/j.efsa.2015.4100)
